Patent US6821769B2, “IniB, iniA and iniC genes of mycobacteria and methods of use” (priority 1998, dated 2004)

Assays:
iniB promoter = assay type: cell-based, BCG; conditions: for Induction of the iniB promoter at 24 hours: BCG containing the iniB/lacZ construct; for Induction of the iniB promoter at 24 hours / iniA gene induction / effect on iniA transcription: FIG. 4; for iniA gene induction / effect on iniA transcription: amino acids; for iniB promoter induction: 213 base pair iniB promoter in lacz reporter construct
iniA [1] = test: Northern blot of iniA induction after antibiotic treatment; assay type: cell-based; conditions: total RNA from M. tuberculosis cultured with or without antibiotics; FIG. 1
Experimental: Autoradiographs of a Northern blot containing RNA from M. tuberculosis cultures treated either with no antibiotics; isoniazid 0.01 μg/ml; isoniazid 0.1 μg/ml; isoniazid 1 μg/ml; ethambutol 5 μg/ml; streptomycin 5 μg/ml; and rifampin 5 μg/ml. The blots were hybridized first with an iniA DNA probe (top) to examine iniA induction; the blot was then stripped and re-hybridized with a 16S probe (bottom) to confirm equal RNA loading.
Mycobacterial cultures were grown to mid log phase in Middlebrook 7H9 media supplemented with OADC, 0.05% Tween 80, and cyclohexamide (18) (for some experiments antibiotics were added for the last 18 hours), pelleted, resuspended in chloroform/methanol 3:1, and vortexed for 60 seconds or until the formation of an interface. RNA was extracted with five volumes of Triazole (Life Technologies, Gaithersburg, Md.), the aqueous layer precipitated in isopropanol, redissolved in 4M GTC and extracted a second time with Triazole.
Five μg of each RNA sample were analyzed by northern blot with Northern Max kits (Ambion, Austin, Tex.) in a 1% denaturing agarose gel, probed with inserts of differentially expressed plasmids labeled by random priming with [α^32P] dCTP, and visualized by autoradiography.

iniA [2] = assay type: cell-based, M. tuberculosis strain Erdman; conditions: RT PCR; isoniazid added for the last 18 hours; FIG. 2A
asd = assay type: cell-based, M. tuberculosis strain Erdman; conditions: RT PCR; isoniazid added for the last 18 hours; FIG. 2A

SMILES	Induction of the iniB promoter at 24 hours (iniB promoter)	iniB promoter induction (iniB promoter; FIG. 3)	iniA induction (Northern blot) (iniA [1])	further results
C[C@H](O)[C@@H](N)C(=O)O [D-threonine]	comparable to that of isoniazid and Unisyn	–	–	iniA gene induction / effect on iniA transcription (iniB promoter): induced
C[C@@H](O)[C@H](N)C(=O)O [L-threonine]	did not cause induction	–	–	iniA gene induction / effect on iniA transcription (iniB promoter): minimal effect
N[C@@H]1CON=C1O [cycloserine]	–	induced	–	–
CC[C@@H](CO)NCCN[C@@H](CC)CO [ethambutol]	–	induced	strongly induced	–
NCC(=O)O [gylcine]	Modest induction	–	–	–
NNC(=O)c1ccncc1 [isoniazid]	–	induced	strongly induced	iniA induction by densitometry (iniA [2]): 70 fold; asd repression (asd): 17 fold
CO[C@H]1/C=C/O[C@@]2(C)Oc3c(C)c(O)c4c(O)c(c(/C=N/N5CCN(C)CC5)c(O)c4c3C2=O)NC(=O)/C(C)=C\C=C\[C@H](C)[C@H](O)[C@@H](C)[C@@H](O)[C@@H](C)[C@H](OC(C)=O)[C@@H]1C [rifampin]	–	–	not	Reversal of iniB promoter induction by co-administration (iniB promoter; co-administration with inducing antibiotic, FIG. 3): can be reversed
[H]/N=C(/N)N[C@H]1[C@H](O)[C@@H](O)[C@H](O[C@@H]2O[C@@H](C)[C@](O)(C=O)[C@H]2O[C@@H]2O[C@@H](CO)[C@H](O)[C@@H](O)[C@@H]2NC)[C@@H](N/C(N)=N\[H])[C@@H]1O [streptomycin]	–	–	not	–
